{"source": "patent US4203986A", "about": "“M-Trifluoro-methylphenyl-piperazine” (Metabio-Joullie, priority 1977, dated 1980)", "key": {"[1]": {"test_system": "coughing induced by aqueous citric acid aerosol", "experiment": "Antitussive action in the guinea pig (citric acid aerosol)", "type": "in vivo", "text": "The technique used is that of SIECKMANN (W.) (in \"Notions techniques de Pharmacologie generale\" by Michel COLOT, page 75, Masson, Edit, 1972).\nThe guinea pigs .female. of mean weight 400 g, unanaesthesised, are subjected to the tussigenic effect of aerosols of a 7.5% aqueous citric acid solution. The animals are placed one by one in a cylindrical chamber having at its two extremities two canals, one serving as entrance for the aerosol and the other as its exit.\nOn the exit tube there is a lateral connection to a MERCURY gas pressure differential gauge joined to an RACIA counter. An adjustable screw clamp placed on the exit tube downstream of the lateral canal permits regulation of the sensitivity of the system such that the normal respiration of the animal only registers very weakly and that displacement of air in the chamber provoked by coughing attack is recorded clearly in the form of vertical traces.\nEach guinea pig is first submitted to a control test for 5 minutes. One hour later it receives the test compound. It is replaced in the chamber for 5 minutes, 1 hour after oral administration of the compound.\nThe number of coughing attacks before and after administration is counted and the percentage inhibition is calculated."}, "[2]": {"test_system": "coughing by stimulation of the superior larynx nerve", "experiment": "Antitussive action in the cat (stimulation of the superior larynx nerve)", "type": "in vivo", "details": "12 mg/kg i.v.", "experimental": "The cats all thriving, male or female of weight between 1.5 and 2.5 kg (test on 10 cats) are anaesthesised by nembutal at a dose of 30 mg/kg interperitoneally.\nA cannula having three branches is placed in the trachea. Two of the branches are connected to a device for registering intratracheal pressure (MERCURY gas pressure gauge connected to an RACIA polygraph) The third branch allows elimination of part of the respiratory volume.\nA cannula is placed in the femoral vein for administration of the test substances.\nThe stimulation parameters are as follows: frequency: 5 cycles per sec, amplitude: 5 millisec, voltage: 4 to 6 volts, duration: 15 to 45 sec. (according to the sensitivity of the animal).\nThere are carried a minimum of 3 stimulations spaced by 5 minutes and provoking coughing attacks of the same severity. The compound is then administered intravenously. The stimulation is then carried out every 5 minutes. If the compound reduces or suppresses the coughing the stimulation is continued until the reappearance of coughing to approximately the same degree as the initial coughing.\nThe results are expressed as a percentage reduction in the number of coughs."}, "Acute toxicity in Mice": {"experiment": "Acute toxicity in Mice", "type": "in vivo, mice (SWISS, EOPS, NMRI/Han, female)", "details": "for LD50 at 360 h / MTD at 360 h: mouse, in vivo; for LD50 at 360 h: method of KARBER and BEHRENS; for MTD at 360 h: read-out: LD 0 (maximum dose tolerated)", "experimental": "The compounds are administered in increasing doses (in arithmetic progression) to groups of five .female. SWISS, EOPS, NMRI/Han mice of the EVIC CEBA strain and having a mean weight of 22 g.\nFor intravenous administration the compounds are dissolved in distilled water, for oral administration they are suspended in 10% gum arabic solution (volume administered: 0.5 ml/22 g body weight).\nThe LD 50's are calculated according to the method of KARBER and BEHRENS (B.) (Arch. Exp. Path. Pharmakol. 1935, 177, 379-388).\nFor each administration method, there is indicated:\nLD 0 or maximum dose tolerated.\nLD 100 or minimum lethal dose.\nThe number of animals surviving in the different groups is definitively verified 15 days after administrating the compounds."}, "[3]": {"experiment": "Test on the cataleptic action in rats", "type": "in vivo", "details": "p.o., every 30 minutes for 6 hours", "experimental": "(7) Test on the cataleptic action in rats (groups of 5 animals)\nAfter administration p.o. of the test compounds, the degree of catalepsy is noted every 30 minutes for 6 hours by the test of crossing of the homolateral feet according to BOISSIER (J.R.) and SIMON (P.) (Therapy, 1963, 18, 1257-1277) and using the following notation:\n0=animal which is not cataleptic\n[…] animal conserving position on one side only\n2=animal conserving position on both sides"}, "[4]": {"test_system": "toxicity of amphetamine compounds", "experiment": "Action on the toxicity of Amphetamine compounds in the mice", "type": "in vivo", "details": "per os", "experimental": "(6) Action on the toxicity of Amphetamine compounds in the mice. (groups of 10 animals)\n30 minutes after administration of the test compounds, amphetamine bitartrate is injected interperitioeally at a dose of 10 mg/kg (dose giving substantially 100% mortality) to mice in groups of 10 in boxes 12×18×13 cm. The number of animals surviving 24 hours after the amphetamine administration is noted."}}, "note": "Like-named read-outs stand apart in the source and are kept apart here."}
{"molecule": "O=C1CCCCC1CN1CCN(c2cccc(C(F)(F)F)c2)CC1", "note": "(centres unmarked) [LJ 1144]", "values": [{"measurement": "inhibition in vivo at 182 mg/kg", "setting": "[1]; Cavia porcellus, po, 1 h, 182 mg/kg p.o., read-out: Percentages of inhibition of coughing", "value": 75, "unit": "%"}, {"measurement": "antitussive activity (in words)", "setting": "[1]; oral", "value": "also active if not more active than codeine"}, {"measurement": "% maximum reduction in the number of coughs", "setting": "[2]", "value": 85, "unit": "%"}, {"measurement": "LD 100 (minimum lethal dose)", "setting": "Acute toxicity in Mice; intravenous administration", "value": 75, "unit": "mg/kg"}, {"measurement": "LD50 at 360 h", "setting": "Acute toxicity in Mice; iv, intravenous administration", "value": 61, "unit": "mg/kg"}, {"measurement": "MTD at 360 h", "setting": "Acute toxicity in Mice; iv, intravenous administration", "value": 37.5, "unit": "mg/kg"}, {"measurement": "LD50 at 360 h", "setting": "Acute toxicity in Mice; po, oral administration", "value": 1820, "unit": "mg/kg"}, {"measurement": "MTD at 360 h", "setting": "Acute toxicity in Mice; po, oral administration", "value": 1250, "unit": "mg/kg"}, {"measurement": "LD 100 (minimum lethal dose)", "setting": "Acute toxicity in Mice; oral administration", "value": 2250, "unit": "mg/kg"}, {"measurement": "cataleptic effect", "setting": "[3]", "value": "absence of cataleptic effect"}, {"measurement": "toxicity of amphetamine compounds (in words)", "setting": "[4]", "value": "reduce the toxicity of amphetamine compounds"}]}
